Laboratory results from ChEMBL document CHEMBL5120770, “Sarubicinols A-C, Cytotoxic Benzoxazoles from a Streptomyces” (J Nat Prod, 2022).

Tests used:
Assay type in all cases: functional, cell-based
HCT-116 = assay: Cytotoxicity against human HCT-116 cells assessed as cell growth inhibition incubated for 72 hrs by CCK8 assay; details: HCT-116, 72 h
A549 = assay: Cytotoxicity against human A549 cells assessed as cell growth inhibition incubated for 72 hrs by CCK8 assay; details: A549, 72 h
4T1 = assay: Cytotoxicity against mouse 4T1 cells assessed as cell growth inhibition incubated for 72 hrs by CCK8 assay; details: 4T1, 72 h
HepG2 = assay: Cytotoxicity against human HepG2 cells assessed as cell growth inhibition incubated for 72 hrs by CCK8 assay; details: HepG2, 72 h

SMILES	IC50 (HCT-116) [µM]	IC50 (A549) [µM]	IC50 (4T1) [µM]	IC50 (HepG2) [µM]
CC(=O)c1cccc2c1C(=O)C(N)=C(C(N)=O)C2=O	14.8	13.5	7.6	6.3
C[C@H]1O[C@@H]2C[C@@H](O)[C@@]1(O)c1c2c(O)c(C(N)=O)c2nc([C@@H](O)[C@@H](O)CO)oc12	4.4	4.8	4.3	5.6
CC(O)c1cccc2c1C(=O)C(N)=C(C(N)=O)C2=O (stereo unspecified)	2.1	0.9	1.3	1.9
NC(=O)C1=C(N)C(=O)c2c(O)cccc2C1=O	11.6	8.4	14.7	8.9
C[C@H]1O[C@@H]2C[C@@H](O)[C@@]1(O)C1=C2C(=O)C(C(N)=O)=C(N)C1=O	0.7	1.4	0.9	1.2
C[C@H]1O[C@@H]2C[C@@H](O)[C@@]1(O)c1c2c(O)c(C(N)=O)c2ncoc12	6.8	7.2	5.7	12.4
C[C@H]1O[C@@H]2C[C@@H](O)[C@@]1(O)c1c2c(O)c(C(N)=O)c2nc([C@@H](O)CO)oc12	5.6	6.4	4.8	8.9
COc1cccc2c1C(=O)c1c(O)c3c(c(O)c1C2=O)C[C@@](O)(C(=O)CO)C[C@@H]3O[C@H]1C[C@H](N)[C@H](O)[C@H](C)O1 [DOXORUBICIN]	0.08		0.09	0.13
